Data on four molecules can be found in ChEMBL document CHEMBL2074034, “Characterization of cloned mouse Na+/taurocholate cotransporting polypeptide by transient expression in COS-7 cells” (Biosci Biotechnol Biochem, 2002).

What all share (format): functional, cell-based
Common to all, as to conditions: monkey, cos-7, 72 µM

For series [1], the target named is T1, Hepatic sodium/bile acid cotransporter (Mus musculus, UniProt O08705).
T1 sequence (O08705 whole entry): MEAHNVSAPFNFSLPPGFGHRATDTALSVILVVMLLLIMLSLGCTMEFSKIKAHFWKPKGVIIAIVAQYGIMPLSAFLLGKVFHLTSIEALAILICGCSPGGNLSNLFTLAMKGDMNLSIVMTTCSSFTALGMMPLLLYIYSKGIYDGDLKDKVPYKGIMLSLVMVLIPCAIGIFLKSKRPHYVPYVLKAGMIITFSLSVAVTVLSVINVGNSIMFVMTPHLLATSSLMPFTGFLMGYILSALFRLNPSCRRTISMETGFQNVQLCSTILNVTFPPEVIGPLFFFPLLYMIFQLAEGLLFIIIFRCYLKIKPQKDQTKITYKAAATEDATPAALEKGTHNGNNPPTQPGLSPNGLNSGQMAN
In words: TP_TRANSPORTER: inhibition of Taurocholate uptake (Taurocholate: 0.72 uM, CDCA: 72 uM) in Ntcp-expressing COS-7 cells.

Series [2] addresses T1, Hepatic sodium/bile acid cotransporter. As to the kind of experiment: TP_TRANSPORTER: inhibition of Taurocholate uptake (Taurocholate: 0.72 uM, GC: 72 uM) in Ntcp-expressing COS-7 cells.
For series [3] the target is unchanged. In words: TP_TRANSPORTER: inhibition of Taurocholate uptake (Taurocholate: 0.72 uM, Lithocholate: 72 uM) in Ntcp-expressing COS-7 cells.
Series [4] shares this target. As to the kind of experiment: TP_TRANSPORTER: inhibition of Taurocholate uptake (Taurocholate: 0.72 uM, Deoxycholate: 72 uM) in Ntcp-expressing COS-7 cells.

Turning to `C[C@H](CCC(=O)O)[C@H]1CC[C@H]2[C@@H]3[C@H](O)C[C@@H]4C[C@H](O)CC[C@]4(C)[C@H]3CC[C@]12C` [CHENODIOL], the Activity result in series [1] was “inhibitor [(at a rough estimate) 20 % of control]”.
For the molecule `C[C@H](CCC(=O)NCC(=O)O)[C@H]1CC[C@H]2[C@@H]3[C@H](O)C[C@@H]4C[C@H](O)CC[C@]4(C)[C@H]3C[C@H](O)[C@]12C` [GLYCOCHOLIC ACID], in series [2], the Activity result was “inhibitor [(at a rough estimate) 40 % of control]”.
For `C[C@H](CCC(=O)O)[C@H]1CC[C@H]2[C@@H]3CC[C@@H]4C[C@H](O)CC[C@]4(C)[C@H]3CC[C@]12C` [LITHOCHOLIC ACID], the Activity entry in series [3] was “inhibitor [(at a rough estimate) 5 % of control]”.
Turning to `C[C@H](CCC(=O)O)[C@H]1CC[C@H]2[C@@H]3CC[C@@H]4C[C@H](O)CC[C@]4(C)[C@H]3C[C@H](O)[C@]12C` [DEOXYCHOLIC ACID], the Activity result in series [4] is “inhibitor [(at a rough estimate) 20 % of control]”.
